Data as given in patent US20210061859A1, “NTCP Inhibitor” (The University of Tokyo, priority 2018, published 2021).
In brackets after ≈: the same amount, converted by molar mass. Where two headings read alike, the source gives them in different places. Where a SMILES comes first, the peptide text is derived from it. Bridges are numbered along the chain shown (N, C = ends). [ ]: non-standard residue; d: D form. NMeS = CN[C@@H](CO)C(=O)O; NMeA = CN[C@@H](C)C(=O)O; Sar = CNCC(=O)O

T1: human NTCP (Homo sapiens, UniProt Q14973)
T1 construct: made in house; host or cells: wheat germ cell-free protein synthesis system
T1 sequence (Q14973 1-349): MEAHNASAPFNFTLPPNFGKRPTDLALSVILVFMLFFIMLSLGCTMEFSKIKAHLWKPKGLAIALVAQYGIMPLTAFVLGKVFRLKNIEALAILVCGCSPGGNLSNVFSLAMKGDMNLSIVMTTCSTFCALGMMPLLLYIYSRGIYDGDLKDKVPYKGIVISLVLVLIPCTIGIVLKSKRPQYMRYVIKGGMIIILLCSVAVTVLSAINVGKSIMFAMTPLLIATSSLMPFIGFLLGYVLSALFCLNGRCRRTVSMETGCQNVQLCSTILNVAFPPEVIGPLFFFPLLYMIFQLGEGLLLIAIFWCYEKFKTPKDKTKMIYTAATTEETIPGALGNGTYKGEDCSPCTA

T2: human NTCP on cells (HepG2-hNTCP-C4 cells overexpressing the human NTCP gene; primary human hepatocytes) (human), Q14973
T2 chain: T1 sequence (Q14973 1-349)

T3: His-tagged recombinant NTCP protein (human sodium taurocholate cotransporting polypeptide) (human), Q14973
T3 chain: T1 sequence (Q14973 1-349)

B1: WL4 (peptide)
peptide: YVIWIWPNHFYYCT
modifications: not checked
B2: WD1 (peptide)
peptide: YFIIVGTWTWTWSCT
modifications: not checked
B3: WL2 (peptide)
peptide: YIWIWPGYVIYCT
modifications: not checked

Experiments:
[1] = target: T1, human NTCP; assay: Surface plasmon resonance binding to immobilized recombinant NTCP; settings: single-cycle kinetics, 1:1 binding model, NTCP immobilized on NTA-Ni2+
Experimental: (§1) FIG. 7 is a diagram showing the NTCP association constant of a peptide identified by first RaPID screening. A single-cycle reaction kinetics experiment was conducted using NTCP immobilized on surface (NTA-Ni^2+) involving varying concentrations of a cyclic peptide analyte. In each case, as shown in the drawing, the peptide was tested with 4-fold serial dilutions starting from the highest concentration of 200 or 1000 nM. A dissociation constant (KD) was determined using a 1:1 binding model.
as §1, with “9” for “7”, “focused library” for “first”, “association constant” for “reaction kinetics”
The association constant of each peptide for human NTCP was measured using a Biacore T200 apparatus (GE Healthcare Japan Corp.). The running buffer solution used was HBS-P+ (10 mM HEPES, 150 mM NaCl, and 0.05 vol % surfactant P20, pH 7.4) containing 0.1 vol % DMSO and 1 mM β-dodecyl-maltoside. 100 nM recombinant NTCP was immobilized on a NTA chip treated with Ni^2+ according to the manufacturer's instructions (baseline response: 1000 to 3000 refraction units). Peptides were injected as analytes at a flow rate of 60 μL/min, and association constants were modelled using a 1:1 binding model.

[2] = tested on: HBV genotype D; assay type: cell-based, hepatitis B virus; settings: primary human hepatocytes; for HBs antigen in the culture supernatant: peptide at 100 μM, 12 days after inoculation
Experimental: FIG. 2 is a diagram showing the anti-HBV effect of a peptide from initial screening. FIG. 2(a) is a schematic diagram of a HepG2-hNTCP-C4 infection experiment. HepG2-hNTCP-C4 cells were pretreated with a peptide for 2 hours and subsequently inoculated with HBV for 16 hours in the presence of the peptide. Free HBV and peptide were washed off. Then, the cells were further cultured for 12 days in the absence of the peptide, and HBV infection was evaluated on the basis of measurement of HBs antigen in the culture supernatant. The filled boxes and the broken-line boxes depict periods for which the treatment was performed and periods for which the treatment was not performed, respectively. […] HBV infection was evaluated by monitoring HBs antigen secreted into a culture supernatant on 12 days after inoculation by ELISA. In FIG. 2(c), a cell survival rate was measured by MTT assay.
FIG. 3 is a diagram showing the anti-HBV effect of a peptide by focused library screening. […] HBV infection was evaluated by measurement of HBe antigen (a), and a cell survival rate (b) was evaluated by MTT assay as shown in FIG. 2.
HBV genotype D used in this study (FIGS. 1 to 3) was derived from the culture supernatant of Hep38.7-Tet cells, and prepared by a known method (the method described in Tsukuda, S. et al. Dysregulation of retinoic acid receptor diminishes hepatocyte permissiveness to hepatitis B virus infection through modulation of sodium taurocholate cotransporting polypeptide (NTCP) expression. The Journal of biological chemistry 290, 5673-5684 (2015), and Ogura, N., Watashi, K., Noguchi, T. & Wakita, T. Formation of covalently closed circular DNA in Hep38.7-Tet cells, a tetracycline inducible hepatitis B virus expression cell line. Biochemical and biophysical research communications 452, 315-321 (2014)). Purified HBV (FIG. 1(d)) was prepared by ultrafiltration to remove an excess of components in FBS and medium. HBV genotypes A, B, and C and genotype C having the L180M/S202G/M204V mutations (nucleoside analog-resistant HBV) or G145R substitution (vaccine-escape HBV) (FIG. 4(d)) were prepared from the culture supernatant of HepG2 cells transfected with the corresponding expression plasmid. HBV was inoculated at 12,000 (FIGS. 1(a), 1(b), and 1(d)), 1000 to 2000 (FIG. 2(b)) or 500 (FIGS. 3(a) and 4(d)) genome equivalents (GEq)/cell in the presence of 4% polyethylene glycol 8000 (PEG8000) and incubated at 37° C. for 16 hours by a known method (the method described in Watashi, K. et al. Interleukin-1 and tumor necrosis factor-alpha trigger restriction of hepatitis B virus infection via a cytidine deaminase activation-induced cytidine deaminase (AID). The Journal of biological chemistry 288, 31715-31727 (2013)).
HBe antigen was detected by a chemiluminescence immunoassay (CLIA) (LSI Medience Corp.). HBs antigen was quantified by enzyme-linked immunosorbent assay (ELISA) as described in a known method (the method described in Watashi, K. et al. Interleukin-1 and tumor necrosis factor-alpha trigger restriction of hepatitis B virus infection via a cytidine deaminase activation-induced cytidine deaminase (AID). The Journal of biological chemistry 288, 31715-31727 (2013)).
Subsequently, the present inventors evaluated the effect of the 10 peptides described above on HBV infection in primary human hepatocytes. […] HBV infection was evaluated by measuring HBs antigen in the culture supernatant. […]

[3] = tested on: HepG2-hNTCP-C4 cells; settings: HBV infection assay
Experimental: HBs antigen secreted into a culture supernatant (a) and HBc antigen in the cells (b) were detected by ELISA and an immunofluorescence method, respectively. A cell survival rate was measured by quantifying total cellular DNA (c). […] Data is indicated by mean±SD. Statistical significance was determined by use of Student's t test as to all numbers (*P<0.05, **P<0.01, N.S.: not significant).

[4] = target: T2, human NTCP on cells (HepG2-hNTCP-C4 …); assay: cell-based or functional assay
[5] = target: T3, His-tagged recombinant NTCP protein …; assay: SPR (Biacore T200), single-cycle kinetics, His-NTCP on Ni2+-NTA chip, peptide as analyte, 1:1 model

Row | Molecule | Kd ([1]; Kd) | 50% inhibitory concentration (IC50), HBs antigen in culture supernatant, HBV infection assay [4] | Kd [5] | also measured
1 | CC[C@H](C)[C@@H]1NC(=O)[C@H](Cc2ccc(O)cc2)NC(=O)CSC[C@@H](C(=O)N[C@H](C(N)=O)[C@@H](C)O)NC(=O)[C@H](Cc2ccc(O)cc2)NC(=O)[C@H]([C@@H](C)CC)NC(=O)[C@H](C(C)C)NC(=O)[C@H](Cc2ccc(O)cc2)NC(=O)CNC(=O)[C@@H]2CCCN2C(=O)[C@H](Cc2c[nH]c3ccccc23)NC(=O)[C@H]([C@@H](C)CC)NC(=O)[C@H](Cc2c[nH]c3ccccc23)NC1=O [WL2] ({CH2CO}-YIWIWPGYVIYCT-NH2; thioether N-12) |  |  |  | Kd ([1]; read-out: Kd): 157 nM; IC50 ([2]; purified HBV as inoculum, HBs antigen in culture supernatant, read-out: 50% inhibitory concentrations (IC50), HBs antigen): 2540 ± 110 nM; solubility: ~30 µM (≈ 51.5 µg/mL); cytotoxicity (cell survival rate, total cellular DNA) [3]: without marked cytotoxicity
2 | CC[C@H](C)[C@@H]1NC(=O)[C@H](C)NC(=O)[C@H](Cc2c[nH]c3ccccc23)NC(=O)[C@H](Cc2c[nH]c3ccccc23)NC(=O)[C@@H](Cc2ccc(O)cc2)NC(=O)CSC[C@@H](C(=O)NCC(N)=O)NC(=O)[C@@H]2CCCN2C(=O)[C@H](Cc2c[nH]c3ccccc23)NC(=O)[C@H]([C@@H](C)O)NC(=O)[C@H](Cc2ccccc2)NC(=O)[C@H](C(C)C)NC(=O)[C@H](Cc2c[nH]cn2)NC(=O)[C@H]([C@@H](C)CC)NC(=O)[C@H](Cc2c[nH]cn2)NC(=O)[C@@H]2CCCN2C(=O)[C@H](CC(N)=O)NC1=O [D2] ({CH2CO}-[dY]WWAINPHIHVFTWPCG-NH2; thioether N-16) | 14 nM |  |  | HBs antigen in the culture supernatant [2]: most active
3 | CC[C@H](C)[C@@H]1NC(=O)[C@@H](Cc2ccc(O)cc2)NC(=O)CSC[C@@H](C(=O)NCC(N)=O)NC(=O)[C@H](CO)NC(=O)[C@H](Cc2ccc(O)cc2)NC(=O)[C@H](CC(C)C)NC(=O)[C@H](CC(C)C)NC(=O)[C@H](Cc2ccccc2)NC(=O)[C@H](CC(C)C)NC(=O)[C@H](Cc2c[nH]cn2)NC(=O)[C@H](CC(C)C)NC(=O)[C@H](CCC(=O)O)NC(=O)[C@@H]2CCCN2C(=O)[C@H](Cc2ccc(O)cc2)NC(=O)[C@H](C(C)C)NC(=O)[C@H](CC(C)C)NC1=O [D4] ({CH2CO}-[dY]ILVYPELHLFLLYSCG-NH2; thioether N-16) | 2270 nM |  |  | HBs antigen in the culture supernatant [2]: most active
4 | CC[C@H](C)[C@@H]1NC(=O)[C@H](Cc2c[nH]c3ccccc23)NC(=O)[C@H]([C@@H](C)CC)NC(=O)[C@H](CCC(N)=O)NC(=O)[C@H](C)N(C)C(=O)[C@H](Cc2ccc(O)cc2)NC(=O)[C@H]([C@@H](C)O)NC(=O)[C@H](Cc2ccccc2)NC(=O)[C@H]([C@@H](C)O)NC(=O)[C@@H](Cc2ccc(O)cc2)NC(=O)CSC[C@@H](C(=O)N[C@H](C(N)=O)[C@@H](C)O)NC(=O)CN(C)C(=O)[C@H](Cc2ccc(O)cc2)NC(=O)[C@H](Cc2ccc(O)cc2)NC(=O)[C@H](Cc2c[nH]c3ccccc23)NC1=O [WD4] ({CH2CO}-[dY]TFTY[NMeA]QIWIWYY[Sar]CT-NH2; thioether N-15) | 11 nM |  |  | 
5 | CC(C)C[C@@H]1NC(=O)[C@H](CC(=O)O)NC(=O)[C@H](CC(C)C)NC(=O)[C@H](Cc2ccccc2)NC(=O)[C@H](Cc2c[nH]c3ccccc23)NC(=O)[C@H](CO)NC(=O)[C@H](CCCNC(=N)N)NC(=O)[C@H](CCC(=O)O)NC(=O)[C@H](C)NC(=O)[C@H](Cc2c[nH]c3ccccc23)NC(=O)[C@H](CC(C)C)NC(=O)[C@H](CC(C)C)NC(=O)[C@H](Cc2c[nH]c3ccccc23)NC(=O)[C@H](C(C)C)NC(=O)[C@H](Cc2ccc(O)cc2)NC(=O)CSC[C@@H](C(=O)NCC(N)=O)NC(=O)CNC1=O [L2] ({CH2CO}-YVWLLWAERSWFLDLGCG-NH2; thioether N-17) | 374 nM |  |  | 
6 | CC(C)C[C@@H]1NC(=O)[C@H](Cc2ccccc2)NC(=O)[C@H](C)NC(=O)[C@H](CO)N(C)C(=O)[C@H](CC(N)=O)NC(=O)[C@H](Cc2c[nH]c3ccccc23)NC(=O)[C@H]([C@@H](C)O)NC(=O)[C@H](Cc2c[nH]c3ccccc23)NC(=O)[C@H]([C@@H](C)O)NC(=O)[C@H](Cc2ccc(O)cc2)NC(=O)CSC[C@@H](C(=O)N[C@H](C(N)=O)[C@@H](C)O)NC(=O)[C@H](Cc2ccc(O)cc2)NC(=O)[C@H](C(C)C)NC(=O)[C@H](Cc2ccc(O)cc2)NC1=O [WL6] ({CH2CO}-YTWTWN[NMeS]AFLYVYCT-NH2; thioether N-14) | 36 nM |  |  | 
7 | CC[C@H](C)[C@@H]1NC(=O)CN(C)C(=O)[C@H](CO)NC(=O)[C@H](Cc2ccc(O)cc2)NC(=O)[C@H](CCCCN)NC(=O)[C@H](Cc2ccc(O)cc2)NC(=O)[C@H]([C@@H](C)O)NC(=O)[C@H](Cc2ccc(O)cc2)NC(=O)CSC[C@@H](C(=O)N[C@H](C(N)=O)[C@@H](C)O)NC(=O)[C@H](Cc2c[nH]c3ccccc23)NC(=O)[C@H]([C@@H](C)CC)NC(=O)[C@H](Cc2c[nH]c3ccccc23)NC(=O)[C@H]([C@@H](C)CC)NC(=O)[C@H](Cc2c[nH]c3ccccc23)NC1=O [WL1] ({CH2CO}-YTYKYS[Sar]IWIWIWCT-NH2; thioether N-14) | 360 nM |  |  | 
8 | B1 |  | 660 nM | 42 nM | 
9 | B2 |  | 850 nM | 15 nM | 
10 | B3 |  | 2540 nM | 157 nM | 
